Data from US20230099344A1, “COMPOUNDS AND METHODS FOR THE TARGETED DEGRADATION OF IRAK-4” (Arvinas Operations, Inc., priority 2021, published 2023).

Assays:
Type in all cases: cell-based
IRAK-4 [1] = target: T1, IRAK-4 (Homo sapiens, UniProt Q9NWZ3); assay: IRAK-4 ELISA, PBMC degradation; set-up: endogenous in cells; host or cells: PBMC; details: treated overnight
T1 sequence (Q9NWZ3 1-460): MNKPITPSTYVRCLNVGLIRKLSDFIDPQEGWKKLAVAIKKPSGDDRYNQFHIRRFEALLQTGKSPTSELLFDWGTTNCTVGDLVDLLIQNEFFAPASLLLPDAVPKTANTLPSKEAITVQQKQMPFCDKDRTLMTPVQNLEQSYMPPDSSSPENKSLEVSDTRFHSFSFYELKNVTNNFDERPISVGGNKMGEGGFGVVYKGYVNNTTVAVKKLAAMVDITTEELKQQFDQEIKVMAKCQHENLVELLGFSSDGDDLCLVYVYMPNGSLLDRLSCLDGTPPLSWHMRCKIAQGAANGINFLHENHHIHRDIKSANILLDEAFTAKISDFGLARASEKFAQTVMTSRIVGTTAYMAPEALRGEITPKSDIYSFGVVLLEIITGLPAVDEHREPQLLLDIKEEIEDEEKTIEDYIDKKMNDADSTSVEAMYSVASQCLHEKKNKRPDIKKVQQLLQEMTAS
Procedure, shortened: (§1)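 OCI-Ly10 cells (seeded at 1×10^6/ml) or human PBMC (seeded at 2×10^6/ml) were treated with compound on the day of seeding and incubated overnight. Lysates were then assayed for remaining IRAK-4 protein by sandwich ELISA with a matched antibody pair.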

IL6 = assay: IL-1β stimulated IL6 inhibition assay in PBMC; details: PBMC, human PBMCs, IL-1β stimulation, compound overnight, IL6 by MSD after 24 hrs; for IC50: Homo sapiens, 24 h, read-out: IL1β stim IL6 inhibition IC50; for Emax: read-out: IL1β stim IL6 inhibition Ymax
Method: (§2) IL-1β, LPS, or R848 Stimulated IL6 Inhibition and IL-1β Stimulated IL8 Inhibition Assay
(§3) Human PBMC cells were seeded at 2.0×10^6 cells/mL, treated with compound overnight, and dosed with the EC50 concentration of each stimulant (either IL-1B. LPS, or R848) was determined for each donor. After 24 hrs, media was collected and analyzed by MSD for IL6 and/or IL8 levels.

IRAK-4 [2] = target: T1, IRAK-4; assay: IRAK-4 ELISA, OCI-Ly10 degradation; set-up: endogenous in cells; details: treated overnight; for Dmax: OCI-Ly10, OCI-Ly10 cells; for DC50: OCI-Ly10 cells
Procedure, shortened: as §1

IL8 = assay: IL-1β stimulated IL8 inhibition assay in PBMC; details: human PBMCs, IL-1β stimulation, compound overnight, IL8 by MSD after 24 hrs; for IC50: read-out: IL1β stim IL8 inhibition IC50; for Emax: read-out: IL1β stim IL8 inhibition Ymax
Method: as §2, §3

SMILES	DC50 (IRAK-4 [1]) [µM]	Dmax (IRAK-4 [1]) [%]	PBMC DC90 (IRAK-4 [1])	IC50 (IL6) [µM]	Emax (IL6) [%]	Dmax (IRAK-4 [2]) [%]	DC50 (IRAK-4 [2]) [µM]	IC50 (IL8) [µM]	Emax (IL8) [%]
COc1cc2nn([C@H]3CC[C@H](N(C)C4CN(c5ccc6c(c5)CN(C5CCC(=O)NC5=O)C6=O)C4)CC3)cc2cc1NC(=O)c1cnn2cccnc12 (stereo partly shown) [Example 337]	0.001 to 0.005	≥ 90	A (A represents a DC90 value <10.0 nM)	< 0.01	≥ 90	≥ 90	< 0.01	< 0.01	< 70
O=C1CCC(N2C(=O)c3ccc(N4CCC(CN5CCC(N6Cc7cc(NC(=O)c8cnn9cccnc89)c(N8CCC(N9CCC9)CC8)cc7C6=O)CC5)CC4)cc3C2=O)C(=O)N1 (stereo not shown) [Example 38]	0.001 to 0.005	≥ 90	A (A represents a DC90 value <10.0 nM)	< 0.01	≥ 90	≥ 90	< 0.01	≥ 0.1	≥ 90
CC(C)Oc1cc2c(cc1NC(=O)c1cnn3cccnc13)CN(C1CCN(C3CCN(c4ccc5c(c4)C(=O)N(C4CCC(=O)NC4=O)C5=O)CC3)CC1)C2=O (stereo not shown) [Example 64]	< 0.001	≥ 90	A (A represents a DC90 value <10.0 nM)	0.01 to 0.05	80 to 90	≥ 90	< 0.01	0.05 to 0.1	< 70
O=C1CCC(N2C(=O)c3ccc(N4CCC(CN5CCC([C@H](F)Cn6cc7cc(NC(=O)c8cnn9cccnc89)c(OCC8CC8)cc7n6)CC5)CC4)cc3C2=O)C(=O)N1 (stereo partly shown) [Example 182]	< 0.001	≥ 90	A (A represents a DC90 value <10.0 nM)	< 0.01	80 to 90	≥ 90	< 0.01	< 0.01	< 70
COc1cc2nn(C3CCN(CCc4ccc5c(c4)CN(C4CCC(=O)NC4=O)C5=O)CC3)cc2cc1NC(=O)c1cnn2cccnc12 (stereo not shown) [Example 143]	0.001 to 0.005	≥ 90	C (C represents a DC90 value ≥25.0 nM and <50 nM)	< 0.01	≥ 90	≥ 90	< 0.01	< 0.01	70 to 80
O=C1CCC(NC(=O)c2ccc(N3CC(CN4CCC(n5cc6cc(NC(=O)c7cnn8cccnc78)c(OCC7CC7)cc6n5)CC4)C3)cc2F)C(=O)N1 (stereo not shown) [Example 287]	0.001 to 0.005	≥ 90	B (B represents a DC90 value ≥10.0 nM and <25.0 nM)	0.05 to 0.1	≥ 90	≥ 90	< 0.01	≥ 0.1	< 70
O=C1CCC(N2Cc3cc(OCCOCCN4CCC(n5cc6cc(NC(=O)c7cnn8cccnc78)c(OCC7CC7)cc6n5)CC4)ccc3C2=O)C(=O)N1 (stereo not shown) [Example 119]	< 0.001	≥ 90	A (A represents a DC90 value <10.0 nM)	< 0.01	≥ 90	80 to 90	< 0.01	0.01 to 0.05	80 to 90
COc1cc2nn([C@H]3CC[C@H](N(C)C4CCN(c5ccc6c(c5)C(=O)N(C5CCC(=O)NC5=O)C6=O)CC4)CC3)cc2cc1NC(=O)c1cnn2cccnc12 (stereo partly shown) [Example 335]	< 0.001	≥ 90	A (A represents a DC90 value <10.0 nM)	< 0.01	≥ 90	≥ 90	< 0.01	≥ 0.1	
COc1cc2nn([C@H]3CC[C@H](N(C)CC#Cc4ccc5c(c4)C(=O)N(C4CCC(=O)NC4=O)C5=O)CC3)cc2cc1NC(=O)c1cnn2cccnc12 (stereo partly shown) [Example 338]	< 0.001	≥ 90	A (A represents a DC90 value <10.0 nM)	< 0.01	≥ 90	≥ 90	< 0.01	0.01 to 0.05	< 70
COc1cc2nn([C@H]3CC[C@H](OC4CN(c5ccc6c(c5)C(=O)N(C5CCC(=O)NC5=O)C6=O)C4)CC3)cc2cc1NC(=O)c1cnn2cccnc12 (stereo partly shown) [Example 212]	< 0.001	≥ 90	A (A represents a DC90 value <10.0 nM)	0.01 to 0.05	80 to 90	≥ 90	< 0.01	0.05 to 0.1	< 70
CC(C)Oc1cc2c(cc1NC(=O)c1cnn3cccnc13)CN(C1CCN(C3CN(c4ccc5c(c4)C(=O)N(C4CCC(=O)NC4=O)C5=O)C3)CC1)C2=O (stereo not shown) [Example 59]	0.001 to 0.005	≥ 90	B (B represents a DC90 value ≥10.0 nM and <25.0 nM)	0.01 to 0.05	≥ 90	≥ 90	< 0.01	0.05 to 0.1	70 to 80
O=C1CCC(N2C(=O)c3ccc(N4CC(CN5CCC(N6Cc7cc(NC(=O)c8cnn9cccnc89)c(OCC8CC8)cc7C6=O)CC5)C4)cc3C2=O)C(=O)N1 (stereo not shown) [Example 86]	0.001 to 0.005	≥ 90	B (B represents a DC90 value ≥10.0 nM and <25.0 nM)	< 0.01	≥ 90	≥ 90	< 0.01	0.01 to 0.05	70 to 80
COc1cc2nn([C@H]3CC[C@H](N(C)C4CN(c5ccc6c(c5)C(=O)N(C5CCC(=O)NC5=O)C6=O)C4)CC3)cc2cc1NC(=O)c1cnn2cccnc12 (stereo partly shown) [Example 334]	< 0.001	≥ 90	A (A represents a DC90 value <10.0 nM)	< 0.01	≥ 90	≥ 90	< 0.01	0.01 to 0.05	< 70
O=C1CCC(N2C(=O)c3ccc(N4CC(CN5CCC(N6Cc7cc(NC(=O)c8cnn9cccnc89)c(N8CCOCC8)cc7C6=O)CC5)C4)cc3C2=O)C(=O)N1 (stereo not shown) [Example 96]	0.001 to 0.005	≥ 90	B (B represents a DC90 value ≥10.0 nM and <25.0 nM)	0.05 to 0.1	≥ 90	≥ 90	0.01 to 0.05	≥ 0.1	< 70
CC(C)Oc1cc2c(cc1NC(=O)c1cnn3cccnc13)CN(C1CCN(CC3CN(c4ccc5c(c4)C(=O)N(C4CCC(=O)NC4=O)C5=O)C3)CC1)C2=O (stereo not shown) [Example 5]	0.001 to 0.005	80 to 90	0.005 µM	0.01 to 0.05	80 to 90	≥ 90	< 0.01	0.05 to 0.1	80 to 90
COc1cc2nn(C3CCN(CC4CN(c5ccc6c(c5)C(=O)N(C5CCC(=O)NC5=O)C6=O)C4)CC3)cc2cc1NC(=O)c1cnn2cccnc12 (stereo not shown) [Example 202]	< 0.001	≥ 90	A (A represents a DC90 value <10.0 nM)	0.01 to 0.05	80 to 90	≥ 90	< 0.01	≥ 0.1	
O=C1CCC(N2C(=O)c3ccc(N4CCC(CN5CC[C@H](n6cc7cc(NC(=O)c8cnn9cccnc89)c(OCC8CC8)cc7n6)[C@@H](F)C5)CC4)cc3C2=O)C(=O)N1 (stereo partly shown) [Example 184]	0.001 to 0.005	80 to 90	C (C represents a DC90 value ≥25.0 nM and <50 nM)	0.01 to 0.05	80 to 90	< 70	< 0.01	0.01 to 0.05	< 70
CC(C)Oc1cc2c(cc1NC(=O)c1cnn3cccnc13)CN([C@H]1CC[C@@H](N3CC4(CN(c5ccc6c(c5)C(=O)N(C5CCC(=O)NC5=O)C6=O)C4)C3)CC1)C2=O (stereo partly shown) [Example 69]	0.001 to 0.005	≥ 90	A (A represents a DC90 value <10.0 nM)	0.01 to 0.05	≥ 90	≥ 90	< 0.01	0.01 to 0.05	80 to 90
CC(C)Oc1cc2c(cc1NC(=O)c1cnn3cccnc13)CN(C1CCN(C3CCN(c4ccc5c(c4)CN(C4CCC(=O)NC4=O)C5=O)CC3)CC1)C2=O (stereo not shown) [Example 282]	< 0.001	≥ 90	A (A represents a DC90 value <10.0 nM)	< 0.01	≥ 90	≥ 90	< 0.01	0.01 to 0.05	< 70
